Test results from PMC10620772, “Design, synthesis, and biological evaluation of new pyrimidine-5-carbonitrile derivatives as novel anti-cancer, dual EGFR^WT/COX-2 inhibitors with docking studies” (RSC Advances, 2023).

Columns and labels:
Format in all cases: cell-based, human
UACC-257 = assay: NCI60 antitumor screening; settings: 10 μM one-dose
SN12C = assay: NCI60 antitumor screening; settings: 10 μM one-dose
SK-MEL-28 = assay: NCI60 antitumor screening; settings: 10 μM one-dose
HCT-15 = assay: NCI60 antitumor screening; settings: 10 μM one-dose
MCF7 = assay: NCI60 antitumor screening; settings: 10 μM one-dose
ACHN = assay: NCI60 antitumor screening; settings: 10 μM one-dose
OVCAR-4 = assay: NCI60 antitumor screening; settings: 10 μM one-dose
786–0 = assay: NCI60 antitumor screening; settings: 10 μM one-dose
EKVX = assay: NCI60 antitumor screening; settings: 10 μM one-dose
SW-620 = assay: NCI60 antitumor screening; settings: 10 μM one-dose
CCRF-CEM = assay: NCI60 antitumor screening; settings: 10 μM one-dose
K-562 = assay: NCI60 antitumor screening; settings: 10 μM one-dose
MDA-MB-468 = assay: NCI60 antitumor screening; settings: 10 μM one-dose
UO-31 = assay: NCI60 antitumor screening; settings: 10 μM one-dose
SNB-19 = assay: NCI60 antitumor screening; settings: 10 μM one-dose
OVCAR-5 = assay: NCI60 antitumor screening; settings: 10 μM one-dose
SK-MEL-2 = assay: NCI60 antitumor screening; settings: 10 μM one-dose
MDA-MB-231/ATCC = assay: NCI60 antitumor screening; settings: 10 μM one-dose
U251 = assay: NCI60 antitumor screening; settings: 10 μM one-dose
SF-295 = assay: NCI60 antitumor screening; settings: 10 μM one-dose
RPMI-8226 = assay: NCI60 antitumor screening; settings: 10 μM one-dose
NCI-H522 = assay: NCI60 antitumor screening; settings: 10 μM one-dose
KM12 = assay: NCI60 antitumor screening; settings: 10 μM one-dose
HCC-2998 = assay: NCI60 antitumor screening; settings: 10 μM one-dose
HT29 = assay: NCI60 antitumor screening; settings: 10 μM one-dose
HL-60(TB) = assay: NCI60 antitumor screening; settings: 10 μM one-dose
NCI/ADR-RES = assay: NCI60 antitumor screening; settings: 10 μM one-dose
MALME-3M = assay: NCI60 antitumor screening; settings: 10 μM one-dose
OVCAR-3 = assay: NCI60 antitumor screening; settings: 10 μM one-dose
SNB-75 = assay: NCI60 antitumor screening; settings: 10 μM one-dose
CAKI-1 = assay: NCI60 antitumor screening; settings: 10 μM one-dose
SR = assay: NCI60 antitumor screening; settings: 10 μM one-dose, Table 1
NCI60 cell lines panel = assay: NCI60 antitumor screening, full panel; settings: 10 μM one-dose, mean over NCI60
Protocol: The National Cancer Institute (NCI), Bethesda, Maryland, United States, selected all of the novel synthesized compounds (2b–d, 3a–d and 4a–p) for in vitro antitumor screening at a single concentration of 10 μM toward the NCI60 cell lines panel covering leukaemia, non-small cell lungs, colon, central nervous system (CNS), melanoma, ovarian, renal, prostate, and breast cancer cells.[32–35] The data were reported as a mean graph of the percent growth of the treated cell lines and expressed as percentage growth inhibition (GI%) in Table 1 and ESI 1.
(2) The molar concentration of the compound responsible for total growth inhibition, also known as total growth inhibition (TGI).
Regarding subpanel selectivity toward certain cancer type, the method of determining a compound's selectivity index is to divide the full panel MG-MID (μM) value by each single subpanel. Values above six indicate high selectivity against the subpanel; moderate selectivity is denoted by values between three and six. Conversely, compounds are termed nonselective if their selectivity is less than three.[30,37]

HCT-116 = assay: NCI60 antitumor screening; settings: 10 μM one-dose
OVCAR-8 = assay: NCI60 antitumor screening; settings: 10 μM one-dose
PC-3 = assay: NCI60 antitumor screening; settings: 10 μM one-dose
MDA-MB-435 = assay: NCI60 antitumor screening; settings: 10 μM one-dose
DU-145 = assay: NCI60 antitumor screening; settings: 10 μM one-dose
HS 578T = assay: NCI60 antitumor screening; settings: 10 μM one-dose
SF-539 = assay: NCI60 antitumor screening; settings: 10 μM one-dose
T-47D = assay: NCI60 antitumor screening; settings: 10 μM one-dose
SF-268 = assay: NCI60 antitumor screening; settings: 10 μM one-dose
BT-549 = assay: NCI60 antitumor screening; settings: 10 μM one-dose
RXF 393 = assay: NCI60 antitumor screening; settings: 10 μM one-dose
A549/ATCC = assay: NCI60 antitumor screening; settings: 10 μM one-dose
A498 = assay: NCI60 antitumor screening; settings: 10 μM one-dose
UACC-62 = assay: NCI60 antitumor screening; settings: 10 μM one-dose
NCI-H460 = assay: NCI60 antitumor screening; settings: 10 μM one-dose
NCI-H322M = assay: NCI60 antitumor screening; settings: 10 μM one-dose
NCI-H23 = assay: NCI60 antitumor screening; settings: 10 μM one-dose
LOX IMVI = assay: NCI60 antitumor screening; settings: 10 μM one-dose
COLO 205 = assay: NCI60 antitumor screening; settings: 10 μM one-dose
M14 = assay: NCI60 antitumor screening; settings: 10 μM one-dose
NCI-H226 = assay: NCI60 antitumor screening; settings: 10 μM one-dose
IGROV1 = assay: NCI60 antitumor screening; settings: 10 μM one-dose
HOP-62 = assay: NCI60 antitumor screening; settings: 10 μM one-dose
SK-MEL-5 = assay: NCI60 antitumor screening; settings: 10 μM one-dose
MOLT-4 = assay: NCI60 antitumor screening; settings: 10 μM one-dose
SK-OV-3 = assay: NCI60 antitumor screening; settings: 10 μM one-dose
TK-10 = assay: NCI60 antitumor screening; settings: 10 μM one-dose
HOP-92 = assay: NCI60 antitumor screening; settings: 10 μM one-dose

N#Cc1c(-c2ccc(F)cc2)nc(SCc2ccc([N+](=O)[O-])cc2)nc1N1CCOCC1 [4c, 4-(4-Fluorophenyl)-6-morpholino-2-((4-nitrobenzyl)thio) pyrimidine-5-carbonitrile]
GI% (UACC-257): 45.85% | GI% (SN12C): 25.44% | GI% (SK-MEL-28): 17.90% | GI% (HCT-15): 27.19% | GI% (MCF7): 41.49% | GI% (ACHN): 48.98% | GI% (OVCAR-4): 42.76% | GI% (OVCAR-4; Table 1): — (GI value > 70%) | GI% (786–0): 69.78% | GI% (786–0; Table 1): — (GI value > 70%) | GI% (EKVX): 60.74% | GI% (SW-620): 19.46% | GI% (CCRF-CEM): 22.80% | GI% (K-562): 23.12% | GI% (K-562; Table 1): — (GI value > 70%) | GI% (MDA-MB-468): 49.44% | GI% (UO-31): 49.11% | GI% (SNB-19): 53.96% | GI% (OVCAR-5): — (GI% < 10) | GI% (SK-MEL-2): 12.63% | GI% (MDA-MB-231/ATCC): 52.93% | GI% (U251): 44.68% | GI% (SF-295): 58.52% | GI% (RPMI-8226): 19.73% | GI% (NCI-H522): 58.72% | GI% (KM12): 15.07% | GI% (HCC-2998): — (GI% < 10) | GI% (HT29): 13.41% | GI% (HL-60(TB)): 17.28% | GI% (NCI/ADR-RES): 58.37% | GI% (MALME-3M): 57.24% | GI% (OVCAR-3): 30.28% | GI% (SNB-75; Table 1): 92.38% | GI% (CAKI-1): 64.15% | GI% (SR): — (GI value > 70%) | Mean GI% (NCI60 cell lines panel): 39.54% | GI% (HCT-116): 35.64% | GI% (OVCAR-8): 46.89% | GI% (PC-3): 40.85% | GI% (MDA-MB-435): 16.03% | GI% (DU-145): 26.65% | GI% (HS 578T; Table 1): 84.42% | GI% (SF-539; Table 1): 73.77% | GI% (T-47D): 44.55% | GI% (SF-268): 50.66% | GI% (BT-549): 41.46% | GI% (RXF 393; Table 1): 90.21% | GI% (A549/ATCC): 36.61% | GI% (A498): 35.57% | GI% (UACC-62): 37.29% | GI% (NCI-H460): 22.56% | GI% (NCI-H322M): 17.30% | GI% (NCI-H23): 25.17% | GI% (LOX IMVI): 15.29% | GI% (COLO 205): — (GI% < 10) | GI% (M14): 12.25% | GI% (NCI-H226; Table 1): 76.22% | GI% (IGROV1): 19.45% | GI% (HOP-62): 65.34% | GI% (HOP-62; Table 1): — (GI value > 70%) | GI% (SK-MEL-5): 38.14% | GI% (MOLT-4): 26.34% | GI% (SK-OV-3): 55.46% | GI% (TK-10): 15.83% | GI% (HOP-92): 63.28%

N#Cc1c(-c2ccc(F)cc2)nc(SCc2ccc(F)cc2)[nH]c1=O [2b, 2-((4-Fluorobenzyl)thio)-4-(4-fluorophenyl)-6-oxo-1,6-dihydropyrimidine-5-carbonitrile]
GI% (UACC-257): — (GI% < 10) | GI% (SN12C): 17.08% | GI% (SK-MEL-28): — (GI% < 10) | GI% (HCT-15): — (GI% < 10) | GI% (MCF7): — (GI% < 10) | GI% (ACHN): 26.83% | GI% (OVCAR-4; Table 1): 73.14% | GI% (786–0; Table 1): 84.82% | GI% (EKVX): — (GI% < 10) | GI% (SW-620): — (GI% < 10) | GI% (CCRF-CEM): — (GI% < 10) | GI% (K-562): — (GI% < 10) | GI% (K-562; Table 1): — ^b (GI value > 70%) | GI% (MDA-MB-468): 14.26% | GI% (UO-31): 26.71% | GI% (SNB-19): 18.35% | GI% (OVCAR-5): — (GI% < 10) | GI% (SK-MEL-2): — (GI% < 10) | GI% (MDA-MB-231/ATCC): 39.26% | GI% (U251): 33.40% | GI% (SF-295): 25.73% | GI% (RPMI-8226): — (GI% < 10) | GI% (NCI-H522): 25.94% | GI% (KM12): — (GI% < 10) | GI% (HCC-2998): — (GI% < 10) | GI% (HT29): — (GI% < 10) | GI% (HL-60(TB)): 20.88% | GI% (NCI/ADR-RES): 37.17% | GI% (MALME-3M): — (GI% < 10) | GI% (OVCAR-3): — (GI% < 10) | GI% (SNB-75): 23.60% | GI% (SNB-75; Table 1): — (GI value > 70%) | GI% (CAKI-1): 24.10% | GI% (SR): — (GI value > 70%) | Mean GI% (NCI60 cell lines panel): 16.01% | GI% (HCT-116): 33.39% | GI% (OVCAR-8): 48.04% | GI% (PC-3): — (GI% < 10) | GI% (MDA-MB-435): — (GI% < 10) | GI% (DU-145): — (GI% < 10) | GI% (HS 578T): 24.34% | GI% (HS 578T; Table 1): — (GI value > 70%) | GI% (SF-539): 45.33% | GI% (SF-539; Table 1): — (GI value > 70%) | GI% (T-47D): 25.99% | GI% (SF-268): 24.67% | GI% (BT-549): — (GI% < 10) | GI% (RXF 393): 28.91% | GI% (RXF 393; Table 1): — (GI value > 70%) | GI% (A549/ATCC): 15.77% | GI% (A498): — (GI% < 10) | GI% (UACC-62): 11.33% | GI% (NCI-H460): 13.27% | GI% (NCI-H23): 12.73% | GI% (LOX IMVI): 10.55% | GI% (COLO 205): — (GI% < 10) | GI% (M14): — (GI% < 10) | GI% (NCI-H226): 24.21% | GI% (NCI-H226; Table 1): — (GI value > 70%) | GI% (IGROV1): — (GI% < 10) | GI% (HOP-62): 16.84% | GI% (HOP-62; Table 1): — (GI value > 70%) | GI% (SK-MEL-5): — (GI% < 10) | GI% (MOLT-4): — (GI% < 10) | GI% (SK-OV-3): 26.25% | GI% (TK-10): 17.90% | GI% (HOP-92): 19.25%
